Patent EP3900788A1, “NON-PRODUCTIVE ANGIOGENESIS INHIBITOR FOR USE IN THE TREATMENT OF ALZHEIMER'S DISEASE” (Consejo Superior de Investigaciones Científicas (CSIC), priority 2020, dated 2021)

Tested on: APP751SL/+ mice
Test: Sorafenib treatment of AD mice: angiogenic cell density and Aβ plaques (Thio-S staining) in brain
Type: in vivo
Conditions: 7-month-old APP751SL/+ mice, Sorafenib treatment 1 month vs vehicle

Compound: CNC(=O)c1cc(Oc2ccc(NC(=O)Nc3ccc(Cl)c(C(F)(F)F)c3)cc2)ccn1 [Sorafenib]
- Aβ plaque load (Thio-S staining of brain): significantly reduced
- mean Aβ plaque area (Thio-S staining of brain): significantly reduced
- apparition of Iαvβ3+ cells in the brain (Iαvβ3+ cell density) (p < 0.001): strongly reduced
